The assay is described as follows: FXR KO mice: steatohepatitis and liver cancer. Type of assay: in vivo. As to conditions: 10 months old Western diet-fed FXR KO mice; 100 mg/liter in drinking water for three months. The text has this: The treatment was started when mice were seven months old. Mice were sacrificed when they were ten months old. n>4.
FXR KO mice have increased insulin resistance accompanied by elevated BAs with increased DCA and develop liver cancer when they are about 15 months old (FIG. 24). […] In addition, FXR KO mice also had reduced Erysipelotrichaceae and Coriobacteriaceae, which have many beneficial health effects (FIG. 25A). Consistently, FXR KO mice had reduced bcoA, which generates butyrate, and increased baiJ and dsrA that generate DCA and hydrogen sulfide, respectively (FIG. 25B). Moreover, 10 months old Western diet-fed FXR KO mice developed severe steatohepatitis with massive hepatic lymphocyte infiltration, which could be eliminated by polymyxin B. This exciting finding clearly indicated the role of Gram-negative bacteria in contributing to hepatic inflammation (FIG. 26). […] Because it takes about 10-15 months for FXR KO mice to develop liver cancer, we will introduce Met/β-catenin plasmids by using sleep beauty transposon system into FXR KO mice via hydrodynamic tail vein injection to induce liver cancer. In wild type mice, these plasmids, which have been provided by Dr. Xin Chen at UCSF, can induce liver cancer within a month post-injection. In the presence of dysbiosis and dysregulated BAs, liver cancer formation is expected to be facilitated and may occur even earlier. […]

For polymyxin B, the “Severe steatohepatitis with massive hepatic lymphocyte infiltration” value is “eliminated”.

For the origin of these results see patent US20190307771A1, “METHODS AND COMPOSITIONS FOR THE TREATMENT OF CANCER AND METABOLIC DISEASES” (THE REGENTS OF THE UNIVERSITY OF CALIFORNIA, priority 2016, published 2019).
